Assay results taken from publication PMC3365486 (Behavioural Pharmacology, 2012).
Where “and” joins values, the source holds several entries; their conditions need not be identical. Identical values can stand only once. Counter-ions that a name gives are not always drawn. Marks after values point to notes of the source that are not given here.

Experiments:
[1] = tested on: drug-naïve rats; test: Acquisition of IV self-administration under FR1 in drug-naïve rats; format: in vivo, rat; conditions: for % Met, Both Criteria Met / % Met, criterion ≥ 15 Injections per Session / % Met, criterion ≥ 70% Active Lever Selection: FR1, 18 sessions, n=7
[2] = tested on: rats; test: Locomotor activity observed at large doses; format: in vivo, rat; conditions: PF-592,379 doses as large as 32.0 mg/kg
[3] = molecular target: T1, recombinant human D4 receptors (Homo sapiens, UniProt P21917); test: Inhibition of forskolin-stimulated cAMP accumulation in intact CHO cells; format: cell-based; conditions: read-out: in vitro Functional Activity EC50, hD4, geometric mean (95%CI)
T1 sequence (P21917 1-419): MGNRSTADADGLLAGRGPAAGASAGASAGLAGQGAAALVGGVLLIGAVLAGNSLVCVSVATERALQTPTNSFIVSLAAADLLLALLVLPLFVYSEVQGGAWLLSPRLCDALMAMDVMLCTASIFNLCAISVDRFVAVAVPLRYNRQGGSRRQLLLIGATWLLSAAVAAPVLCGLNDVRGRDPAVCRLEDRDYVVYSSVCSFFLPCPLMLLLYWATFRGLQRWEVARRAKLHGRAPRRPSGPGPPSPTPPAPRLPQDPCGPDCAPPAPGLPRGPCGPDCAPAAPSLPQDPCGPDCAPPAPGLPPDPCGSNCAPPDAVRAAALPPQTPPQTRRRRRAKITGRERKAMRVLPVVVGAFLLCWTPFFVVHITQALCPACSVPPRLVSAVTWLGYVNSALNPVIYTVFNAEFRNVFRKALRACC

[4] = tested on: rats trained to discriminate 5.6 mg/kg cocaine from saline; conditions: rat, in vivo; for maximum cocaine-appropriate responding: sc
[5] = tested on: rats trained to self-administer cocaine; test: Fixed ratio; format: in vivo, rat; conditions: for FR5 responding when substituted for cocaine, relative to saline: cocaine and 7-OH-DPAT 0.032–1.0, PF-592,379 0.01–1.0 mg/kg/inj i.v., n=6
[6] = tested on: rats trained to self-administer cocaine; test: Progressive ratio; format: in vivo, rat; conditions: for Total Injections / Total Responses / Final Ratio Achieved: maximally effective dose (cocaine 1.0, 7-OH-DPAT 0.32, PF-592,379 0.1 mg/kg/inf), mean (SEM); for PR responding when substituted for cocaine, relative to saline: cocaine 0.032–1.0, 7-OH-DPAT and PF-592,379 0.1–1.0 mg/kg/inj
[7] = molecular target: T1, recombinant human D4 receptors; test: In vitro competition binding, [3H]spiperone, CHO cell membranes; conditions: read-out: in vitro Binding Affinity Ki, hD4, geometric mean (95%CI)
[8] = molecular target: T2, recombinant human D3 receptors (Homo sapiens, UniProt P35462); conditions: cAMP accumulation; ref Attkins et al., 2010; cited from earlier work
T2 sequence (P35462 whole entry): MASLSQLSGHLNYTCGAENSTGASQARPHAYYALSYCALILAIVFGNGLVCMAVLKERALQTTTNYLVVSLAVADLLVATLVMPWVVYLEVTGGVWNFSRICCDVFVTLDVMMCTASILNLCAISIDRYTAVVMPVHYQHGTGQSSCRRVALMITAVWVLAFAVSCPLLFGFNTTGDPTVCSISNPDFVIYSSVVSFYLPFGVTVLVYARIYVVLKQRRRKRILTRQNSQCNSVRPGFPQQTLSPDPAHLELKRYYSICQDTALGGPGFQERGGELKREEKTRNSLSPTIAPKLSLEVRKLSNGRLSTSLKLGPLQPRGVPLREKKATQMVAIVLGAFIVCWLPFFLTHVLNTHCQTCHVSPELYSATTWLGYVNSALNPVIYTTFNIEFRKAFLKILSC

[9] = molecular target: recombinant human D5 receptors (Homo sapiens, UniProt P21918); test: In vitro competition binding, [3H]SCH23390, CHO cell membranes
Chain of recombinant human D5 receptors (P21918 whole entry): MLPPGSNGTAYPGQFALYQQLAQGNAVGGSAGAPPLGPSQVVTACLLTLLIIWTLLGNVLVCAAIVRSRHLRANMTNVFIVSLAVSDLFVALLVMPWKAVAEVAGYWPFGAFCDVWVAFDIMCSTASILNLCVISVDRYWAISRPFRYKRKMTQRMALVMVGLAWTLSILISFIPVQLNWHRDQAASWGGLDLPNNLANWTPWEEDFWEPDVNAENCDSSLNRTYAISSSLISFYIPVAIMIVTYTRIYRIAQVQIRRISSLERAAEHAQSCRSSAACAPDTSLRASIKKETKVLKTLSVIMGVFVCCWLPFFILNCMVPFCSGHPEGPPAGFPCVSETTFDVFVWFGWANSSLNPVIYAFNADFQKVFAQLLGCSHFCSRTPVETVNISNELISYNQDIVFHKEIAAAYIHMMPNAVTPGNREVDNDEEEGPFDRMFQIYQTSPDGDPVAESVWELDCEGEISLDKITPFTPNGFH

[10] = molecular target: recombinant human D2 receptors (Homo sapiens, UniProt P14416); test: In vitro competition binding, [3H]U-86170, CHO cell membranes
Chain of recombinant human D2 receptors (P14416 whole entry): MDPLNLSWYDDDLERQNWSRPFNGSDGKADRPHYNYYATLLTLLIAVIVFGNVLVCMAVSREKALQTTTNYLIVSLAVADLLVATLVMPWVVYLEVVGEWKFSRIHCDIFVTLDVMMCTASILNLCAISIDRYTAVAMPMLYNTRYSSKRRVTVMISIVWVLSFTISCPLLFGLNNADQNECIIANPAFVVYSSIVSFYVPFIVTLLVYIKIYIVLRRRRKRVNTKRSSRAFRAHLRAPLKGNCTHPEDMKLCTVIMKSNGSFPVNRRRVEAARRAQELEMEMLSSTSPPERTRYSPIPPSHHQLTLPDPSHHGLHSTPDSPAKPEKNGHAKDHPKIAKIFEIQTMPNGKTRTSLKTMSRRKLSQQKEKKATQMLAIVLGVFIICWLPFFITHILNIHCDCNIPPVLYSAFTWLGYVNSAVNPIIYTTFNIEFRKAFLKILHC

[11] = molecular target: T2, recombinant human D3 receptors; test: In vitro competition binding, [3H]spiperone, CHO cell membranes; conditions: no binding up to 10 µM
[12] = molecular target: T2, recombinant human D3 receptors; test: Inhibition of forskolin-stimulated cAMP accumulation in intact CHO cells; format: cell-based
[13] = molecular target: recombinant human D1 receptors (Homo sapiens, UniProt P21728); test: In vitro competition binding, [3H]SCH23390, CHO cell membranes
Chain of recombinant human D1 receptors (P21728 whole entry): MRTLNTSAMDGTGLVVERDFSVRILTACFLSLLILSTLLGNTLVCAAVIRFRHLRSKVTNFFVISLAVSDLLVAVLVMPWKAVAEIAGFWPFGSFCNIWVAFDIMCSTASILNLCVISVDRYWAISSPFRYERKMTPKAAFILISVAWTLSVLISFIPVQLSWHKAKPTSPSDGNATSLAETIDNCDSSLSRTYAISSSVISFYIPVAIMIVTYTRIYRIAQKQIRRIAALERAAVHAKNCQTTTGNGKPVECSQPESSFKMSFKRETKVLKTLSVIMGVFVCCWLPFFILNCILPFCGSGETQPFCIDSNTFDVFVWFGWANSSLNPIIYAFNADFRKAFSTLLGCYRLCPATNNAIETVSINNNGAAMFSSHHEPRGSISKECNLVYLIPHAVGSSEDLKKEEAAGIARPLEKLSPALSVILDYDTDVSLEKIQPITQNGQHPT

[14] = tested on: D3 or D2 receptor; conditions: ref Collins et al., 2007; cited from earlier work
[15] = tested on: D3 receptor; conditions: ref Millan et al., 2002; cited from earlier work
[16] = tested on: D2 receptor; conditions: ref McCall et al., 2005; cited from earlier work
[17] = 0.32 mg/kg per injection IV, FR1

With `Br.CCCN(CCC)C1CCc2ccc(O)cc2C1` (racemic) [7-OH-DPAT, (±)-7-Hydroxy-2-dipropylaminotetralin HBr] the “Sessions to Criteria (SEM), criterion ≥ 15 Injections per Session” value (“Sessions to Criteria (SEM) … per Session” below) [1, 17] was 15.5 (1.5) sessions, the “% Met, Both Criteria Met” value ([1]; 0.32 mg/kg per injection IV) was 0% and the “% Met, criterion ≥ 15 Injections per Session” value (from here on “% Met … per Session”) ([1]; 0.32 mg/kg per injection IV) was 28%. The “effect on locomotor activity” value [2] was “stimulated locomotor activity”, the EC50 [3] was 45.2 nM and the “substitution for the discriminative stimulus effects of cocaine” value [4] was “only partially substituted for cocaine”. The maximum cocaine-appropriate responding [4] was 59% and ~ 60%, the “doses maintaining FR5 responding significantly greater than saline” value ([5]; FR5, i.v.) was 0.1 mg/kg/inj and the “Total Injections” value ([6]; PR) was 17.2 (5.4). For the same compound, the “Total Responses” value ([6]; PR) was 690.5 (303.7) and the Ki [7] was 110 nM.
With `COC(=O)[C@H]1[C@@H](OC(=O)c2ccccc2)C[C@@H]2CC[C@H]1N2C` [Cocaine, Cocaine HCl] the “Sessions to Criteria (SEM), Both Criteria Met” value [1, 17] was 11.0 (2.3) sessions, the “Sessions to Criteria (SEM) … per Session” value [1, 17] was 11.8 (2.4) sessions and the “Sessions to Criteria (SEM), criterion ≥ 70% Active Lever Selection” value [1, 17] was 10.4 (2.1) sessions. The “% Met, Both Criteria Met” value ([1]; 0.32 mg/kg per injection IV) was 71%, the “% Met … per Session” value ([1]; 0.32 mg/kg per injection IV) was 86% and the “% Met, criterion ≥ 70% Active Lever Selection” value ([1]; 0.32 mg/kg per injection IV) was 71%. For the same compound, the “FR5 responding when substituted for cocaine, relative to saline” value [5] was “maintained dose-dependent levels of responding”, the “doses maintaining significantly more PR responding than saline” value ([6]; PR, i.v.) was at least 0.1 mg/kg/inj and the “Final Ratio Achieved” value ([6]; PR) was 172.0 (40.4) ^***. For the same compound, the “Total Injections” value ([6]; PR) was 31.0 (3.4) ^***, the “Total Responses” value ([6]; PR) was 1895.0 (687.3) ^** and the “PR responding when substituted for cocaine, relative to saline” value [6] was “monotonic increases in responding”.
For `CCCN1C[C@@H](c2ccc(N)nc2)OC[C@@H]1C` [PF-592,379, 5-[(2R,5S)-5-methyl-4-propylmorpholin-2-yl]pyridin-2-amine], the “Sessions to Criteria (SEM) … per Session” value [1, 17] was 3 (n.a.) sessions, the “% Met, Both Criteria Met” value ([1]; 0.32 mg/kg per injection IV) was 0% and the “% Met … per Session” value ([1]; 0.32 mg/kg per injection IV) was 14%. For the same compound, the “% Met, criterion ≥ 70% Active Lever Selection” value ([1]; 0.32 mg/kg per injection IV) was 0%, the “drug earned during the first few acquisition sessions” value ([1]; 0.32 mg/kg/inj, FR1) was “approximately 3 mg/kg” and the “injections per session by the end of the acquisition period” value ([1]; 0.32 mg/kg/inj, FR1) was under 5 injections per session. For the same compound, the “effect on locomotor activity” value [2] was “only a mild inhibition of locomotor activity”, the “agonist efficacy at the D3 receptor” value [8] was “full agonist” and the IC50 [9] was at least 10000 nM. The IC50 [10] was at least 10000 nM, the “responding at the largest doses tested, relative to baseline” value [4] was ~ 15 % of baseline and the “substitution for the discriminative stimulus effects of cocaine” value [4] was “nearly exclusive responding on the saline-appropriate lever”. For the same compound, the maximum cocaine-appropriate responding [4] was 3.5%, the “injections per session when substituted for cocaine” value ([5]; FR5 or PR schedule, doses as large as 1.0 mg/kg) was under 5 injections per session and the “FR5 responding when substituted for cocaine, relative to saline” value [5] was “no different than saline”. The “Final Ratio Achieved” value ([6]; PR) was 8.9 (2.1), the “Total Injections” value ([6]; PR) was 1.3 (0.5) and the “Total Responses” value ([6]; PR) was 18.5 (11.7). For the same compound, the “PR responding when substituted for cocaine, relative to saline” value [6] was “Low, saline-like levels of responding”, the “binding selectivity for D3 over D2, D1, and D5 receptors” value [11] was “at least 46 fold” and the “functional selectivity for D3 over D2 receptors” value [12] was “at least 470 fold”. It also gave an IC50 [13] of at least 10000 nM.
In the case of `CCCN[C@H]1CCc2nc(N)sc2C1` [pramipexole], the “range of doses over which the D3 or D2 receptor is selectively activated in vivo” value [14] is given as at most 30 fold and the “in vitro radioligand binding selectivity for the D3 over D2” value [15] is given as ~ 100 fold.
In the case of `CN[C@@H]1Cc2cccc3[nH]c(=O)n(c23)C1` [sumanirole], the “in vitro radioligand binding selectivity for the D2 over D3 receptor” value [16] is given as ~ 200 fold and the “range of doses over which the D3 or D2 receptor is selectively activated in vivo” value [14] is given as at most 30 fold.
